The values below come from patent US12678431B2, “Pharmaceutical composition for treatment of dementia and cerebrovascular disorders” (FUSO PHARMACEUTICAL INDUSTRIES, LTD., priority 2019, dated 2026).

Holding throughout (type): in vivo
For experiment [1], the system named is matrix metalloproteinase 9 (MMP-9). The experiment can be described thus: Test for suppression of blood-brain barrier disruption (western blotting, MMP-9 antibody) in vascular dementia disease model mouse. The conditions noted are these: BCAS model mouse; 100 μmol/kg oral or intraperitoneal, three times/week; hippocampus and striatal tissue, 7 days after the surgery; FIG. 2. An excerpt:
(§1) Firstly, according to a general preparation method for vascular dementia disease model mouse (for example, Shibata M, Ohtani R, Ihara M, et al., Stroke 35: 2598-2603, 2004; or Ihara M, Taguchi A, Maki T, et al., Methods Mol Biol 1135: 95-102, 2014), the mouse was equipped with a 0.18 mm microcoil into a right common carotid artery of the mice and a 0.16 mm microcoil into a left common carotid artery thereof.
Next, a vascular dementia disease model mouse (hereinafter sometimes referred to as Bilateral common artery stenosis (BCAS) model) was prepared according to the below-mentioned schedule as shown in FIG. 1. […]
The vascular dementia disease model mouse which was prepared in the Test Example 1 was euthanized on 7 days after the surgery. […] The homogenate was crushed with ultrasonic while cooling on ice, and after centrifuging, the supernatant was subjected to a protein quantification by a bicinchoninic acid (BCA) method. Thereafter, the prepared protein sample was evaluated on an effect on suppression of blood-brain barrier disruption according to a western blotting method using antibody against matrix metalloproteinase 9 (MMP-9) similarly to a generally known method. […]

The subject of experiment [2] is myelin basic protein (MBP). The experiment can be described thus: Test for suppression against reduction of a myelin basic protein (MBP), brain section immunostaining in vascular dementia disease model mouse. The settings on record: BCAS model mouse; 100 μmol/kg oral or intraperitoneal, three times/week; brain frozen section, 28 days after the surgery; FIG. 3.
Excerpt: as §1
(§2) Next, a vascular dementia disease model mouse (hereinafter sometimes referred to as Bilateral common artery stenosis (BCAS) model) was prepared according to the below-mentioned schedule as shown in FIG. 1.
Ethoxyquin or methyldopa were administered by an oral administration or an intraperitoneal administration in a dose of 100 μmol/kg by a ratio of three times/week until the completion of the test (for example, for 1 to 4 weeks). Here the test results in the case where a healthy mouse as control was used is shown.
The vascular dementia disease model mouse which was prepared in the Test Example 1 was euthanized on 28 days after the surgery. The frozen section of the brain of the mice (N (number of animal)=6 to 8 animals) were immobilized in cold acetone for 10 minutes, and washed with PBS for 5 minutes (× three times). […]

In experiment [3] the test system is vascular dementia disease model mouse (BCAS model). The experiment is described as follows: Novel object recognition test in vascular dementia disease model mouse. The settings on record: 100 μmol/kg oral or intraperitoneal, three times/week, FIG. 4.
Excerpt: as §1, §2
Ethoxyquin or methyldopa were administered by an oral administration or an intraperitoneal administration in a dose of 100 μmol/kg by a ratio of three times/week until the completion of the test (for example, for 1 to 4 weeks). […]
A novel object recognition test was conducted by utilizing rodent's character of seeking novelty. […] After a certain times were passed, one of the object was changed by a novel object, and the animals were placed in the same observation box again, and the time exploring an object was measured for 10 minutes (Test trial). The time exploring a novel object or the time exploring the learned object were defined as “N” or “F” respectively, and were calculated by the following equation: the Exploration time=N+F, and the Discrimination Index=(N−F)/(N+F). […]

Experiment [4] shares this test system. The experiment is described as follows: Test for influence on cerebral blood flow (Laser-Doppler blood flow meter) in vascular dementia disease model mice. The conditions noted are these: 50, 75 or 100 μmol/kg oral or intraperitoneal, three times/week, measured up to 14 days after surgery, FIG. 5.
Excerpt: as §1, §2
In the vascular dementia disease model mice (N (number of animals)=6 to 8 animals) that were prepared in the Test Example 1, a cerebral blood flow of a boundary region (blegma) between middle cerebral artery and anterior cerebral artery was measured at immediately before ischemic surgery, immediately after ischemic surgery, after 1 day, after 4 days, after 7 days or after 14 days. A Laser-Doppler blood flow meter was fixed on a skull, and a cerebral blood flow was measured, and the cerebral blood flow was evaluated as a ratio thereof to cerebral blood flow immediately before ischemic surgery. […]

Molecules are shown by their SMILES.

`CCOc1ccc2c(c1)C(C)=CC(C)(C)N2` [Compound 1, 6-Ethoxy-2,2,4-trimethyl-1,2-dihydroquinoline]: the “effect on suppressing a blood-brain barrier disruption (MMP-9 western blotting)” value in experiment [1] is recorded as “suggested an effect on suppressing a blood-brain barrier disruption”. Besides, the “effect on suppression of the reduction of myelin basic protein” value in experiment [2] was “suggested an effect on a suppression of the reduction of myelin basic protein”. For the same compound, the “novel object recognition (cognitive dysfunction, long-term spatial memory; Discrimination Index)” value in experiment [3] was “showed an improved cognitive dysfunction in a long-term spatial memory”. The “influence on cerebral blood flow (ratio to flow immediately before ischemic surgery)” value in experiment [4] is reported as “do not affect any cerebral blood flow”.
Take `C[C@](N)(Cc1ccc(O)c(O)c1)C(=O)O` [Compound 2, Methyldopa sesquihydrates]: the “effect on suppressing a blood-brain barrier disruption (MMP-9 western blotting)” value in experiment [1] was “suggested an effect on suppressing a blood-brain barrier disruption”. Moreover, the “effect on suppression of the reduction of myelin basic protein” value in experiment [2] is “suggested an effect on a suppression of the reduction of myelin basic protein”. Also, the “novel object recognition (cognitive dysfunction, long-term spatial memory; Discrimination Index)” value in experiment [3] is given as “showed an improved cognitive dysfunction in a long-term spatial memory”. The “influence on cerebral blood flow (ratio to flow immediately before ischemic surgery)” value in experiment [4] was “do not affect any cerebral blood flow”.
